According to US20060035920A1, “Chk-1 inhibitors” (Millennium Pharmaceuticals, Inc., priority 2004, published 2006):

Biological target: T1, Recombinant human Chk1 (GST-Chk1) (Homo sapiens, UniProt O14757)
T1 construct: made in house; host or cells: insect cells (baculovirus, Bac-to-Bac system)
T1 sequence (O14757 1-476): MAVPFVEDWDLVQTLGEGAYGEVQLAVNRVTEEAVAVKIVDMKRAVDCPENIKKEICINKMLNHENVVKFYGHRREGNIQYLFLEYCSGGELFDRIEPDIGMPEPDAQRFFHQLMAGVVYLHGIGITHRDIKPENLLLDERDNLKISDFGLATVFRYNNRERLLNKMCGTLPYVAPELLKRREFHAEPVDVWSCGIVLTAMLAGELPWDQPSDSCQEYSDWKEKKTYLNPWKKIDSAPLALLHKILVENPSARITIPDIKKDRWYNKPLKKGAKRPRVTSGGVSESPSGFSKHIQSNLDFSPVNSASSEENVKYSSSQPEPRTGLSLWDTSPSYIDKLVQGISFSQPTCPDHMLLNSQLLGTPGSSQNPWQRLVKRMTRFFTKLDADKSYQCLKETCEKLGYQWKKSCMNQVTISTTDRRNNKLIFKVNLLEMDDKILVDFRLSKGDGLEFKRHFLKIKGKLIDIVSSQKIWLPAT
Assay: Chk1 DELFIA Kinase Assay
Assay type: biochemical
Method: Recombinant human Chk1 was expressed as a fusion protein with glutathione S-transferase at the amino-terminus (GST-Chk1) using standard baculovirus vectors and (Bac-to-Bac®) insect cell expression system purchased from GIBCO™ Invitrogen. Recombinant protein expressed in insect cells was purified using glutathione sepharose (Amersham Biotech) using standard procedures described by the manufacturer.
Chk1 DELFIA® Kinase Assay:
Assays (25 μL) utilized 2 nM GST-Chk1 containing 10 mM Tris, pH 7.5, 20% glycerol, 50 mM sodium chloride (NaCl), 0.01% Surfact-Amps® 20, 1 μM peptide stubstrate (Biotin-GLYRSPSMPEN-amide) (SEQ ID NO: 2), 01.% BSA, 2 mM DTT, 4% DMSO, 600 μM ATP, 10 mM MgCl2 and reacted for 50 minutes at room temperature. Reactions were terminated with 100 μL of Stop buffer containing 1% BSA, 10 mM Tris, pH 8.0, 150 mM NaCl, 100 mM EDTA. Stopped reactions (100 μL) were transferred to 96 well NeutrAvidin plates (Pierce) to capture the biotin-peptide substrate during a 30 minute room temperature incubation. Wells were washed and reacted with 100 μL PerkinElmer Wallac Assay Buffer containing 21.5 ng/ml anti-phospho-Ser216-Cdc25c rabbit polyclonal antibody from Cell Signaling Technology (Beverly, Mass.) and 292 ng/ml europium labeled anti-rabbit-IgG for 1 hour at room temperature. Wells were washed and europium released from the bound antibody by addition of Enhancement Solution (100 μL) (PerkinElmer Wallac) and detected using a Perkin Elmer Wallac Envison™ 2100 multilabel reader using standard manufacturer settings.

[1] = GST-Chk1 in vitro kinase assay, bound given in μM
[2] = GST-Chk1 kinase assay, bound given in nM

SMILES | IC50 [1] | IC50 [2]
CCn1c(=O)c2c(C)[nH]nc2c2cc(-c3cnn(C)c3)ccc21 [Compound I-51, 5-ethyl-3-methyl-8-(1-methyl-1H-pyrazol-4-yl)-2,5-dihydro-4H-pyrazolo[4,3-c]quinolin-4-one] | < 1 µM | > 0.5 µM
CCN(CC)C/C=C/c1ccc2c(c1)c1n[nH]c(C)c1c(=O)n2CC [Compound I-43, 8-[(1E)-3-(diethylamino)prop-1-en-1-yl]-5-ethyl-3-methyl-2,5-dihydro-4H-pyrazolo[4,3-c]quinolin-4-one] |  | < 0.5 µM
CCn1c(=O)c2c(C)[nH]nc2c2cc(C#CCN(C)C)ccc21 [Compound I-11, 8-[3-(dimethylamino)prop-1-yn-1-yl]-5-ethyl-3-methyl-2,5-dihydro-4H-pyrazolo[4,3-c]quinolin-4-one] |  | < 0.5 µM
CCn1c(=O)c2c(C)[nH]nc2c2cc(-c3ccc(CN4CCc5ccccc5C4)s3)ccc21 [Compound I-48, 8-[5-(3,4-dihydroisoquinolin-2(1H)-ylmethyl)-2-thienyl]-5-ethyl-3-methyl-2,5-dihydro-4H-pyrazolo[4,3-c]quinolin-4-one] | < 1 µM | > 0.5 µM
CCn1c(=O)c2c(C)[nH]nc2c2cc(C#CCN3CCOCC3)ccc21 [Compound I-7, 5-ethyl-3-methyl-8-(3-morpholin-4-ylprop-1-yn-1-yl)-2,5-dihydro-4H-pyrazolo[4,3-c]quinolin-4-one] |  | < 0.5 µM
Cc1[nH]nc2c1c(=O)n(CCO)c1ccc(C#CCN3CCCC3)cc21 [Compound I-17, 5-(2-hydroxyethyl)-3-methyl-8-(3-pyrrolidin-1-ylprop-1-yn-1-yl)-2,5-dihydro-4H-pyrazolo[4,3-c]quinolin-4-one] |  | < 0.5 µM
CCn1c(=O)c2c(C)[nH]nc2c2cc(C#CCN3CCCC3)ccc21 [Compound I-21, 5-ethyl-3-methyl-8-(3-pyrrolidin-1-ylprop-1-yn-1-yl)-2,5-dihydro-4H-pyrazolo[4,3-c]quinolin-4-one] |  | < 0.5 µM
CCn1c(=O)c2c(C)[nH]nc2c2cc(C#CCN3CCC3)ccc21 [Compound I-31, 8-(3-azetidin-1-ylprop-1-yn-1-yl)-5-ethyl-3-methyl-2,5-dihydro-4H-pyrazolo[4,3-c]quinolin-4-one] |  | < 0.5 µM
